Results published in patent publication US20210196724A1, “BIARYL COMPOSITIONS AND METHODS FOR MODULATING A KINASE CASCADE” (Athenex, Inc., priority 2016, published 2021).
Values joined by “and” are separate entries in the source; they are usually repeats but may differ in a detail not shown here. Equal entries are not always repeated. Where two headings read alike, the source gives them in different places.

What was measured:
Jurkat = test: Cell growth inhibition (GI50), Jurkat; type: cell-based
Protocol: (§1) The drug concentration required to block net cell growth by 50% relative to a control sample is measured as the GI50. The GI50s for several of the compounds of the application were assayed as described.

HT-29 = test: Cell growth inhibition (GI50), HT-29; type: cell-based
Protocol: as §1

GL261 cells = test: MTT cell growth inhibition (GI50), GL261; type: cell-based, murine; conditions: 3 days
Protocol: as §1
(§2) MTT assay: U87 and GL261 cells were seeded in 96-well plate (6×10^3 cells in 100 μl of DMEM+10% FBS media per well) and incubated overnight at 37° C. with 5% CO2. All test compounds were diluted (10 point 2-fold serial dilution) in a separate 96-well plate to yield 10× of final concentrations (0.5-256 nM). A volume of 11 μl of 10× dilutions was added to appropriate wells (n=3). To value (reflecting the starting number of cells upon drug treatment) was determined by following steps as described below. After 3 days incubation at 37° C. with 5% CO2, 10 μl of MTT solution (5 mg/ml in PBS) was added to each well and plates were incubated at 37° C. for 3 h to allow MTT to form formazan crystals by reacting with metabolically active cells. 100 μl of 20% SDS was added to each well and plates were incubated overnight at 37° C. with 5% CO2. Afterward, OD570 was measured using microplate reader. The cell growth percentage of control was calculated according to percentage of control=(T−T0)/(C−T0)×100% or OD value of the test well exposure to test drug—OD value at time zero/(OD of the control well without drug treatment−OD value at time zero)×100%. Growth inhibition curves and GI50 were determined using GraphPad Prism 5 software.

U87 cells = test: MTT cell growth inhibition (GI50), U87; type: cell-based, human; conditions: 3 days
Protocol: as §1, §2

`Cc1cc(N2CCOC[C@@H]2C)ccc1-c1ccc(CC(=O)NCc2ccccc2)nc1` (stereo in doubt) [Compound 104] showed a GI50 (Jurkat) of 2.5 nM, a GI50 (Jurkat; Homo sapiens) of 2.3 nM and a GI50 (HT-29; HT-29) of 2.5 nM. The GI50 (HT-29; Homo sapiens, HT-29, HT-29) was 3.1 nM, the GI50 (GL261 cells) was 10 nM and 5.3 nM and the GI50 (U87 cells) was 4 nM.
